Like-named read-outs stand apart in the source and are kept apart here.
Experiments:
[1] = biological target: T1, LC3B (Homo sapiens, UniProt Q9GZQ8); experiment: AlphaScreen interaction displacement assay (GST-LC3B / biotin-LIRtide); assay type: binding
T1 construct: made in house; host or cells: E. coli Rosetta (DE3)
Protocol: The AlphaScreen assay contained 50 mM Tris (pH 7.5), 100 mM NaCl, 0.01% Tween 20, 2 mM DTT, 1 % DMSO and 2-30 nM GST-LC3B and biotin-LIRtide 2-30 nM. The concentrations of GST-LC3B and biotin-LIRtide were experimentally chosen from a cross-titration assay exploring the different combinations of for each batch of protein used and when a new batch of buffer was prepared.
A gene encoding for human LC3B protein inserted in a pET-GST expression vector was used as a template. Rosetta (DE3) competent cells were transformed by started procedure, plated on an LB agar plate with ampicillin (100 µg/ml) and left overnight at 37 °C. Overnight culture was prepared from a single colony and shaken at 180 rpm at 37 °C. LB medium with ampicillin was inoculated with overnight culture (10 ml per 500 ml of LB) and shaken until the optical density at 600 nm (OD600) reached a value of approximately 0.6. Protein expression was then induced with 400 µM IPTG and further incubated for 4 hours. Bacterial culture was centrifuged for 20 minutes at 6000 rpm at 4 °C. The pellet was then resuspended in lysis buffer (20 mM TRIS-HCl pH 7.5, 10 mM EDTA, 5 mM EGTA, 150 mM NaCl, 0.5 % NP40, 1 % Triton X-100, 1 mM DTT, 2 mg/ml lysozyme, 0.05 U/µl benzonase, 1x protease inhibitor cocktail). Lysate was then stored at -20 °C over night. Sample was thawed in water bath and sonicated on ice (40 % amplitude, 30 seconds pulse/30 seconds pause cycle). Lysate was centrifuged at 10000xg at 4 °C for half an hour. Meanwhile, 500 µl of glutathione sepharose beads was equilibrated with lysis buffer and then added to the supernatant. The mixture was incubated and rotated at room temperature for 2 hours. After binding of the protein to the beads, beads were spun down at 500xg at 4 °C for 5 minutes. Pellet was then washed with cold wash buffer at least four times (20 mM Tris-HCl pH 7.5, 10 mM EDTA, 5 mM EGTA, 150 mM NaCl, 1 mM DTT), dried and stored in 5 % glycerol at 4 °C.

[2] = test system: LC3B; experiment: cellular autophagy screening: LC3B spots by immunocytochemistry and automated confocal imaging; assay type: cell-based; conditions: relative to negative DMSO control, 100 µM, 1 hour; for LC3B Inhibition cell based Fold increase of LC3B spots: Table 2a; for LC3B inhibition cell based Fold increase of LC3B spots [DMSO control 1.0]: Table 1-a, n.e. means no effect
Protocol: For screening purposes, cells were seeded in 384 well plates and left over night for attachment.
Afterwards, medium was removed and 4 % (w/v) paraformaldehyde (PFA) in PBS buffer was added to the cells for 20 minutes, incubated at room temperature. Cells were permeabilized with 0.1 % (v/v) Triton X-100 for 10 min at room temperature and washed with PBS. Cells were blocked with 3 % (w/v) bovine serum albumin (BSA) in PBS for 45 minutes at 37 °C and then incubated with anti-LC3B (PM036, MBL) or anti-p62 (PM045 or M162-3, MBL) primary antibody diluted in 0.3 % BSA (1:2000 or 1:500) for 1.5-2 hours at 37 °C. Cells were washed three times with PBS.
384 well plates were then analyzed with an automated confocal microscope Opera (PerkinElmer) enabling high throughput high content screening image analysis. […] A water immersion 60x objective was used for optical slicing and stacking (5x0.5 µm stacks). […] Signal was detected with a fast gated CCD camera. Acapella software (PerkinElmer) is an algorithm based high content imaging and analysis software used in multi-parametric multiplex assays. Acapella was used to follow cell viability (i.e. number of cells) and the number of LC3B and p62 spots per cell.
The LC3B protein is a ubiquitin-like protein that can be conjugated to phosphatidylethanolamine (PE) in the membrane of the incipient autophagosome. The nonlipidated and lipidated forms are usually referred to as LC3B-I and LC3B-II, respectively. […] Autophagic flux is often inferred on the basis of LC3B-II turnover, measured by western blot (WB) or immunofluorescence (IF) in the presence and absence of lysosomal degradation. […] Lysosomal degradation can be prevented e.g. through the use of compounds that neutralize the lysosomal pH such as Bafilomycin A1 (BafA1) or chloroquine (CQ). […] An additive or supra-additive effect in LC3B-II levels (WB) and LC3B-positive punctae numbers (IF) may indicate that the treatment enhances autophagic flux. […] This assay can be complemented by simultaneous monitoring of autophagosomal substrates or autophagosomal substrate receptors (e.g. SQSTM1/p62) by WB and/or IF. For example, an increase in LC3B-II levels in combination with the accumulation of SQSTM1/p62 is indicative of a blockage of the autophagy pathway at terminal stages.

[3] = Table 2a, read-out: LC3B Inhibition cell free IC50
[4] = Table 1-a, n.e. means no effect, read-out: LC3B inhibition cell free IC50
[5] = Table 1-a, n.e. means no effect

Row | IC50 [1, 4] | SMILES | IC50 [1, 3] | LC3B Inhibition cell based Fold increase of LC3B spots [2] | LC3B inhibition cell based Fold increase of LC3B spots [DMSO control 1.0] [2] | LC3B inhibition cell free IC50 [1, 5]
1 | – | CC(C)=CCc1cc(C(=O)Nc2c(O)c3ccc(O)c(C)c3oc2=O)ccc1O [Compound 2-1, N-(4,7-dihydroxy-8-methyl-2-oxo-2H-chromen-3-yl)-4-hydroxy-3-(3-methylbut-2-en-1-yl)benzamide] | 87 µM | – | – | –
2 | – | COC1C(OC(N)=O)C(OC(C)=O)C(Oc2ccc3c(O)c(NC(=O)c4ccc(OC(C)=O)c(CC=C(C)C)c4)c(=O)oc3c2C)OC1(C)C (stereo not drawn) [Compound 2-2] | 19.3 µM | 1.5 | – | –
3 | – | COC1C(OC(N)=O)C(O)C(Oc2ccc3c(O)c(NC(=O)c4ccc(O)c(CCC(C)C)c4)c(=O)oc3c2C)OC1(C)C (stereo not drawn) [Compound 2-4, 5-hydroxy-6-((4-hydroxy-3-(4-hydroxy-3-isopentylbenzamido)-8-methyl-2-oxo-2H-chromen-7-yl)oxy)-3-methoxy-2,2-dimethyltetrahydro-2H-pyran-4-y/carbamate] | 4.8 µM | 1.2 | – | –
4 | – | COC1C(OC(N)=O)C(OC(C)=O)C(Oc2ccc3c(O)c(NC(=O)C(Cc4ccccc4)NC(=O)OC(C)(C)C)c(=O)oc3c2C)OC1(C)C (stereo not drawn) [Compound 2-7] | 145 µM | 1.0 | – | –
5 | – | Cc1c(O)ccc2c(O)c(NC(=O)C(Cc3ccccc3)NC(=O)OC(C)(C)C)c(=O)oc12 (stereo not drawn) [Compound 2-8] | 122 µM | 1.0 | – | –
6 | – | Cc1c(O)ccc2c(O)c(NC(=O)C(CC(C)C)NC(=O)OC(C)(C)C)c(=O)oc12 (stereo not drawn) [Compound 2-9] | 73.3 µM | 1.2 | – | –
7 | – | Cc1c(O)ccc2c(O)c(NC(=O)C(CCc3ccccc3)NC(=O)OC(C)(C)C)c(=O)oc12 (stereo not drawn) [Compound 2-10] | 155 µM | 1.0 | – | –
8 | – | Cc1c(O)ccc2c(O)c(NC(=O)c3cccc(-c4ccccc4)c3)c(=O)oc12 [Compound 2-11] | 63 µM | 1.1 | – | –
9 | – | Cc1c(O)ccc2c(O)c(NC(=O)c3cccc(Oc4ccccc4)c3)c(=O)oc12 [Compound 2-12] | 54 µM | 1.1 | – | –
10 | 23.6 µM | Fc1ccc(CSC2=NCN(Cc3cccnc3)CN2)cc1 [Compound I-3, 6-((4-fluorobenzyl)thio)-3-(pyridin-3-ylmethyl)-1,2,3,4-tetrahydro-1,3,5-triazine] | – | – | 1.8 | –
11 | 19.5 µM | c1ccc(CSC2=NCN(Cc3cccnc3)CN2)cc1 [Compound I-4, 6-(benzylthio)-3-(pyridin-3-ylmethyl)-1,2,3,4-tetrahydro-1,3,5-triazine] | – | – | 1.7 | –
12 | 30.9 µM | FC(F)(F)c1ccc(CSC2=NCN(Cc3cccnc3)CN2)cc1 [Compound I-5, 3-(pyridin-3-ylmethyl)-6-((4-(trifluoromethyl)benzyl)thio)-1,2,3,4-tetrahydro-1,3,5-triazine] | – | – | 3.2 | –
13 | 12.3 µM | COc1ccc(CSC2=NCN(Cc3cccnc3)CN2)cc1 [Compound I-6, 6-((4-methoxybenzyl)thio)-3-(pyridin-3-ylmethyl)-1,2,3,4-tetrahydro-1,3,5-triazine] | – | – | 1.8 | –
14 | 26.6 µM | CC(C)CCNC(=O)c1ccc(CSC2=NCN(Cc3cccnc3)CN2)cc1 [Compound I-7, N-isopentyl-4-(((5-(pyridin-3-ylmethyl)-1,4,5,6-tetrahydro-1,3,5-triazin-2-yl)thio)methyl)benzamide] | – | – | 3.1 | –
15 | 21 µM | Brc1cccc(CSC2=NCN(Cc3cccnc3)CN2)c1 [Compound I-8, 6-((3-bromobenzyl)thio)-3-(pyridin-3-ylmethyl)-1,2,3,4-tetrahydro-1,3,5-triazine] | – | – | 3.0 | –
16 | 18.5 µM | COc1cccc(CSC2=NCN(Cc3cccnc3)CN2)c1 [Compound I-9, 6-((3-methoxybenzyl)thio)-3-(pyridin-3-ylmethyl)-1,2,3,4-tetrahydro-1,3,5-triazine] | – | – | n.e. | –
17 | 1 µM | c1ccc(Oc2cccc(CSC3=NCN(Cc4cccnc4)CN3)c2)cc1 [Compound I-10, 6-((3-phenoxybenzyl)thio)-3-(pyridin-3-ylmethyl)-1,2,3,4-tetrahydro-1,3,5-triazine] | – | – | 6.1 | –
18 | 12.2 µM | CC(C)CCNC(=O)c1cccc(CSC2=NCN(Cc3cccnc3)CN2)c1 [Compound I-11, N-isopentyl-3-(((5-(pyridin-3-ylmethyl)-1,4,5,6-tetrahydro-1,3,5-triazin-2-yl)thio)methyl)benzamide] | – | – | n.e. | –
19 | – | Fc1ccc(CN2CN=C(SCc3ccc(Br)cc3)NC2)cc1 [Compound I-14, 6-((4-bromobenzyl)thio)-3-(4-fluorobenzyl)-1,2,3,4-tetrahydro-1,3,5-triazine] | – | – | 5.8 | n.e
20 | – | Fc1ccc(CN2CN=C(SCc3cccc(Oc4ccccc4)c3)NC2)cc1F [Compound I-18, 3-(3,4-difluorobenzyl)-6-((3-phenoxybenzyl)thio)-1,2,3,4-tetrahydro-1,3,5-triazine] | – | – | – | n.e
21 | – | Fc1cccc(CN2CN=C(SCc3ccc(Br)cc3)NC2)c1 [Compound I-19, 6-((4-bromobenzyl)thio)-3-(3-fluorobenzyl)-1,2,3,4-tetrahydro-1,3,5-triazine] | – | – | – | n.e.
22 | – | Fc1cccc(CN2CN=C(SCc3cccc(Oc4ccccc4)c3)NC2)c1 [Compound I-20, 3-(3-fluorobenzyl)-6-((3-phenoxybenzyl)thio)-1,2,3,4-tetrahydro-1,3,5-triazine] | – | – | – | n.e.
23 | – | CCN(CC)CCCC(C)Nc1ccnc2cc(Cl)ccc12 (stereo not drawn) [chloroquine, reference compound] | – | 4.4 | 4.4 | –
24 | – | CCC(=O)N1CCN(c2ccc(-n3c(=O)ccc4cnc5ccc(-c6cnc7ccccc7c6)cc5c43)cc2C(F)(F)F)CC1 [torin 1, reference compound] | – | 3.1 | 3.1 | –

Row | SMILES | IC50 [1, 4] | IC50 [1, 3] | LC3B Inhibition cell based Fold increase of LC3B spots [2] | LC3B inhibition cell based Fold increase of LC3B spots [DMSO control 1.0] [2] | LC3B inhibition cell free IC50 [1, 5]
25 | Clc1ccc(CSC2=NCN(Cc3cccnc3)CN2)cc1 [Compound I-2, 6-((4-chlorobenzyl)thio)-3-(pyridin-3-ylmethyl)-12,3,4-tetrahydro-1,3,5-triazine] | 16 µM | – | – | 3.2 | –
26 | COC(=O)[C@H](CC(C)C)NC(=O)c1cccc(CSC2=NCN(Cc3cccnc3)CN2)c1 [Compound I-12, methyl(3-(((5-(pyridin-3-ylmethyl)-1,4,5,6-tetrahydro-1,3,5-triazin-2-yl)thio)methyl)benzoyl)leucinate] | 8.9 µM | – | – | 5.0 | –
